Peptide text beside a SMILES is read from it.

Assay in the first series: not given
Conditions: not given
On the procedure: Solubilization of the complex with citronellal or citral in ethanol was examined while keeping the amino acid as crystal. The amino acids are different in the crystalline state in the commercial products depending on the kind thereof, so that there were fear that the results might cause fluctuation. Thus, an operation for enlarging the surface in contact with the liquid was added by making the difference due to crystals small as well as making the surface area as much as possible. Specifically, the crystals of the amino acids were ground in a mortar and then sieved through a 100 μm sieve to provide powders, which were used in the present test.
The amount and heating time of citronellal or citral necessary for solubilizing the obtained complex in ethanol, and the dispersed state of the obtained complex in ethanol was confirmed.
Take `NCCCC[C@H](N)C(=O)O` [Lysine, L-(+) lysine]: the “Amount of citronellal necessary for solubilizing in ethanol” value (from here on “Amount of citronellal necessary”) is on record as 700 mg and the “Heating time necessary for solubilizing in ethanol” value (shortened to “Heating time necessary”) is recorded as 0.5 h. As to `CC[C@H](C)[C@H](N)C(=O)O` [Isoleucine, L(+)-isoleucine], the “Amount of citral necessary for solubilizing in ethanol” value (shortened to “Amount of citral necessary”) came to 700 mg and the “Heating time necessary” value stood at 0.25 h. In the case of `NC(=O)CC[C@H](N)C(=O)O` [Glutamine, L(+)-glutamine], the “Amount of citral necessary” value was 700 mg and the “Heating time necessary” value was 24 h. In the case of `N[C@@H](Cc1c[nH]cn1)C(=O)O` [Histidine, L-histidine], the “Amount of citronellal necessary” value is given as 700 mg and the “Heating time necessary” value amounted to 17.5 h.

For `CC(C)[C@H](N)C(=O)O` [Valine, L-valine], the “Amount of citral necessary” value came to 700 mg and the “Heating time necessary” value worked out at 3 h. In the case of `N[C@@H](Cc1c[nH]c2ccccc12)C(=O)O` [Tryptophan, L-tryptophan], the “Amount of citronellal necessary” value came to 700 mg and the “Heating time necessary” value is listed as 24 h. `C[C@H](N)C(=O)O` [L-Alanine, L-alanine]: the “Amount of citral necessary” value was 700 mg and the “Heating time necessary” value is on record as 5 h. As for `N[C@@H](CS)C(=O)O` [L-cysteine], the “Amount of citronellal necessary” value is on record as 700 mg and the “Heating time necessary” value was found to be 0.33 h.

Another series in a line: Oil solubilization of Peptide A or B using citral. It is filed as physicochemical. Particulars: 2 mg peptide, 0.1 mL citral, 0.1 mL ethanol, 80° C. (Peptide A 3 hours, Peptide B 4 hours); 50 μL ethanol solution + 150 μL IPM. On the procedure:
The oil solubilization experiment of Peptide A is as follows.
Preparation conditions under heating at 80° C. are as follows.
Preparation conditions under stirring at room temperature are as follows. To 1 mL of a screw-top sample tube were added 2 mg of Peptide B, 0.1 mL of citral and 0.1 mL of ethanol, and the mixture was stirred at room temperature for 22 hours to obtain an ethanol solution.
Turning to `CSCC[C@H](NC(=O)[C@H](CC(C)C)NC(=O)[C@@H](NC(=O)[C@H](Cc1ccccc1)NC(=O)CNC(=O)[C@@H](NC(=O)[C@H](CC(C)C)NC(=O)[C@H](CCCCN)NC(=O)[C@H](C)NC(=O)[C@H](Cc1ccccc1)NC(=O)[C@@H](N)CCC(N)=O)[C@@H](C)O)[C@@H](C)O)C(=O)NCC(=O)O` [Peptide A] (H-QFAKLTGFTLMG-OH; N-terminus and C-terminus assumed), the “Solution state in IPM” value is given as “pale yellow peptide IPM solution”. On the same count and under the same terms, next, `CSCC[C@H](NC(=O)[C@@H](N)CO)C(=O)N[C@@H](CCCCN)C(=O)N[C@H](C(=O)N[C@H](C(=O)N[C@H](C(=O)N[C@@H](C)C(=O)N[C@@H](Cc1ccccc1)C(=O)N[C@@H](CC(N)=O)C(=O)N[C@@H](CCC(N)=O)C(=O)N[C@@H](Cc1ccccc1)C(=O)NCC(=O)N1CCC[C@H]1C(=O)O)C(C)C)[C@@H](C)O)C(C)C` [Peptide B] (H-SMKVTVAFNQFGP-OH; N-terminus and C-terminus assumed): “pale yellow peptide IPM solution”.

The series is the same for the next values; noted with them: 2 mg peptide, 0.1 mL citral, 0.1 mL ethanol, stirred at room temperature 22 hours.
For `CSCC[C@H](NC(=O)[C@@H](N)CO)C(=O)N[C@@H](CCCCN)C(=O)N[C@H](C(=O)N[C@H](C(=O)N[C@H](C(=O)N[C@@H](C)C(=O)N[C@@H](Cc1ccccc1)C(=O)N[C@@H](CC(N)=O)C(=O)N[C@@H](CCC(N)=O)C(=O)N[C@@H](Cc1ccccc1)C(=O)NCC(=O)N1CCC[C@H]1C(=O)O)C(C)C)[C@@H](C)O)C(C)C` [Peptide B] (H-SMKVTVAFNQFGP-OH; N-terminus and C-terminus assumed), the “State of ethanol solution” value is given as “yellow gel-like substance”.
